Calls of active or inactive are those of the source. The rule behind the calls is not given here.
Experiments:
[1] = target: T1, Relaxin receptor 1 (Homo sapiens) (UniProt Q9HBX9); test: Agonist activity at RXFP1 receptor (unknown origin) expressed in HEK293 cells assessed as stimulation of cAMP production incubated for 30 mins by TR-FRET based HTRF assay relative to forskolin; format: functional, cell-based
T1 sequence (whole entry): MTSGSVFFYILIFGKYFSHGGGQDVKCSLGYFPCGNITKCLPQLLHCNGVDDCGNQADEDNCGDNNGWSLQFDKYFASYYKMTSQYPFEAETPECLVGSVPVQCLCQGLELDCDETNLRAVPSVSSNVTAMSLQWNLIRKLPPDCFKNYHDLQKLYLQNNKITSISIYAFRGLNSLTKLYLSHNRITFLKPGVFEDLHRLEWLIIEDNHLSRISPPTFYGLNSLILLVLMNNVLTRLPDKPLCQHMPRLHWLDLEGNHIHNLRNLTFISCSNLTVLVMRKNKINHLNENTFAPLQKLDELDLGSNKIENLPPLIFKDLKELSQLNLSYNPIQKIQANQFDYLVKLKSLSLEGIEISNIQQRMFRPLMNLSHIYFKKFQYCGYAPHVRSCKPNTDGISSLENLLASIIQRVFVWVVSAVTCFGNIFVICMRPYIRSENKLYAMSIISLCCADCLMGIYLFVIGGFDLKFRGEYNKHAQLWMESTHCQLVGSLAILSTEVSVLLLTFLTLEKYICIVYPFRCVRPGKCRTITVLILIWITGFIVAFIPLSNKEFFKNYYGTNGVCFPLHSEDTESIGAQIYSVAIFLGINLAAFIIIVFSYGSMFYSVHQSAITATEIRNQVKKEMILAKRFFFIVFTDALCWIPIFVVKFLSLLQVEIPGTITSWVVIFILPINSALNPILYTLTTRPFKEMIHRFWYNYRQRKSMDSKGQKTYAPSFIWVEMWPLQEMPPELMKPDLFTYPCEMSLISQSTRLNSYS

[2] = target: T2, Relaxin receptor 1 (Homo sapiens, UniProt Q9HBX9); test: Agonist activity at RXFP1 receptor (unknown origin) expressed in HEK293 cells assessed as stimulation of cAMP production incubated for 30 mins by TR-FRET based HTRF assay; format: functional, cell-based
T2 sequence (Q9HBX9 whole entry): T1 sequence (whole entry)

Row | Structure (SMILES) | %max [1] | AC50 ([2]; read-out: AC50) [µM] | AC50 ([2]; hek293)
1 | CCOc1ccccc1C(=O)Nc1ccccc1-c1nc2cc(C(F)(F)F)ccc2[nH]1 | 31% | 149 | 
2 | CCOc1ccccc1C(=O)Nc1cnccc1C(=O)Nc1cccc(S(=O)(=O)C(F)(F)F)c1 | 99% | 2.97 | 
3 | COc1ccccc1-c1ccccc1C(=O)Nc1cccc(C(F)(F)F)c1 | inactive |  | Not Active
4 | CCOc1ccccc1-c1nc2c(C(=O)Nc3cccc(S(=O)(=O)C(F)(F)F)c3)cccc2[nH]1 | inactive |  | Not Active
5 | COc1ccccc1C(=O)Nc1cccc(C(=O)Nc2cccc(C(F)(F)F)c2)c1 | inactive |  | 
6 | CCOc1ccccc1-c1nc2ccccc2c2nc3ccc(C(F)(F)F)cc3n12 |  | 188 | 
7 | CCOc1ccccc1-c1nc2ccccc2c(=O)n1-c1cccc(-c2nnn[nH]2)c1 | 36% | 149 | 
8 | O=C(Nc1cccc(C(F)(F)F)c1)c1ccccc1Nc1ccccc1 | 84% | 4.2 | 
9 | CCOc1ccccc1C(=O)Nc1ccccc1CNc1cccc(S(=O)(=O)C(F)(F)F)c1 | 77% | 2.65 | 
10 | O=C(Nc1ccccc1C(=O)Nc1cccc(C(F)(F)F)c1)c1ccc(C(F)(F)F)cc1 | 93% | 5.93 | 
11 | O=C(Nc1cccc(C(F)(F)F)c1)c1ccccc1NC(=O)c1ccccc1C(F)(F)F | 70% | 7.47 | 
12 | O=C(Nc1cccc(C(F)(F)F)c1)c1ccccc1NCc1ccccc1 | 69% | 47.1 | 
13 | CNCCOc1ccccc1C(=O)Nc1ccccc1C(=O)Nc1cccc(C(F)(F)F)c1 | 92% | 3.74 | 
14 | O=C(Nc1ccccc1C(=O)Nc1cccc(C(F)(F)F)c1)c1ccc(Cl)cc1 | 95% | 2.65 | 
15 | N#Cc1ccc(C(=O)Nc2ccccc2C(=O)Nc2cccc(C(F)(F)F)c2)cc1 | 96% | 1.67 | 
16 | COc1ccccc1CNc1ccccc1C(=O)Nc1cccc(C(F)(F)F)c1 | 57% | 59.3 | 
17 | COCCNc1ccccc1C(=O)Nc1cccc(C(F)(F)F)c1 | 63% | 59.3 | 
18 | COc1ccccc1Nc1ccccc1C(=O)Nc1cccc(C(F)(F)F)c1 | 77% | 4.71 | 

Row | Structure (SMILES) | %max [1] | AC50 ([2]; read-out: AC50) [µM] | AC50 ([2]; hek293)
19 | O=C(Nc1cccc(C(F)(F)F)c1)c1ccccc1-c1ccccc1OCc1ccccc1 | inactive |  | Not Active
20 | COc1ccc(C(=O)Nc2ccccc2C(=O)Nc2cccc(C(F)(F)F)c2)cc1 | 71% | 9.4 | 
21 | O=C(Nc1cccc(C(F)(F)F)c1)c1ccccc1OCCN1CCNCC1 | inactive |  | Not Active
22 | CC(C)(C)OC(=O)N1CCN(CCOc2ccccc2C(=O)Nc2ccccc2C(=O)Nc2cccc(C(F)(F)F)c2)CC1 | 94% | 1.33 | 
23 | CCOc1ccccc1C(=O)Nc1ccncc1C(=O)Nc1cccc(S(=O)(=O)C(F)(F)F)c1 | 97% | 0.747 | 
24 | O=C(Nc1ccccc1C(=O)Nc1cccc(C(F)(F)F)c1)c1ccccc1I | 80% | 7.47 | 
25 | COc1cccc(C(=O)Nc2ccccc2C(=O)Nc2cccc(C(F)(F)F)c2)c1 | 94% | 1.88 | 
26 | C/C=C\c1cccc(NC(=O)c2ccccc2NC(=O)c2ccccc2OCC)c1 | 91% |  | 
27 | O=C(Nc1cccc(C(F)(F)F)c1)c1ccccc1NCCc1ccccc1 | 83% | 9.4 | 
28 | COCCOc1ccccc1C(=O)Nc1cccc(C(F)(F)F)c1 | inactive |  | Not Active
29 | CCOc1ccccc1C(=O)Nc1ccccc1C(=O)Nc1cncc(I)c1 | 72% |  | 
30 | O=C(Nc1cccc(C(F)(F)F)c1)c1ccccc1NC(=O)c1ccccc1OCCN1CCOCC1 | 98% | 4.71 | 
31 | COc1ccccc1C(=O)Nc1ccc(C(=O)Nc2cccc(C(F)(F)F)c2)cc1 | inactive |  | Not Active
32 | N#Cc1cccc(C(=O)Nc2ccccc2C(=O)Nc2cccc(C(F)(F)F)c2)c1 | 96% | 2.1 | 
33 | CN(C)CCCOc1ccccc1C(=O)Nc1cccc(C(F)(F)F)c1 | inactive |  | Not Active
34 | O=C(Nc1cccc(C(F)(F)F)c1)c1ccccc1NC(=O)c1ccccc1[N+](=O)[O-] | 30% | 188 | 
35 | COc1ccccc1C(=O)N(C)c1ccccc1C(=O)N(C)c1cccc(C(F)(F)F)c1 | inactive |  | Not Active
36 | COc1ccccc1C(=O)N(C)c1ccccc1C(=O)Nc1cccc(C(F)(F)F)c1 | inactive |  | 

Other lines, results leading:

Row | %max [1] | AC50 ([2]; read-out: AC50) [µM] | AC50 ([2]; hek293) | Structure (SMILES)
37 | 46% | 9.4 |  | O=C(Nc1ccc2c(c1)CCC2)c1ccccc1NC(=O)C1CCCCC1
38 | 75% | 2.11 |  | O=C(Nc1cccc(C(F)(F)F)c1)c1ccccc1NC(=O)C1CCCCCC1
39 | 71% | 5.93 |  | CC(=O)c1ccc(C(=O)Nc2ccccc2C(=O)Nc2cccc(C(F)(F)F)c2)cc1
40 | 31% | 471 |  | O=C(Nc1cccc(-c2cccs2)c1)c1ccccc1NC(=O)C1CCCCC1
41 | 74% | 2.65 |  | O=C(Nc1cccc(-c2ccccc2C(F)(F)F)c1)c1ccccc1NC(=O)C1CCCCC1
42 | inactive |  |  | O=C(Nc1cccc(-c2cccc(C(F)(F)F)c2)c1)c1ccccc1NC(=O)C1CCCCC1
43 | inactive |  | Not Active | O=C(NCc1ccc(C(F)(F)F)cc1)c1ccccc1NC(=O)C1CCCCC1
44 | 78% | 47.1 |  | O=CNc1ccccc1C(=O)Nc1cccc(C(F)(F)F)c1
45 | 92% | 3.74 |  | O=C(Nc1ccccc1C(=O)Nc1cccc(C(F)(F)F)c1)c1ccccc1Cl
46 | inactive |  | Not Active | COc1ccc(NC(=O)c2ccccc2NC(=O)C2CCCCC2)cc1
47 | 90% | 4.2 |  | Cc1ccccc1C(=O)Nc1ccccc1C(=O)Nc1cccc(C(F)(F)F)c1
48 | 94% | 1.33 |  | COc1ccccc1C(=O)Nc1ccccc1C(=O)Nc1cccc(SC)c1
49 | 66% | 5.29 |  | CC(C)c1cccc(NC(=O)c2ccccc2NC(=O)C2CCCCC2)c1
50 | 95% | 6.66 |  | COc1ccccc1C(=O)Nc1ccccc1C(=O)Nc1cccc(S(C)(=O)=O)c1
51 | 84% | 2.97 |  | O=C(Nc1cccc(I)c1)c1ccccc1NC(=O)C1CCCCC1
52 | 34% | 118 |  | CS(=O)(=O)c1cccc(NC(=O)c2ccccc2NC(=O)C2CCCCC2)c1
53 | 89% | 3.34 |  | O=C(Nc1cccc(Cl)c1)c1ccccc1NC(=O)C1CCCCC1
54 | 85% | 4.71 |  | Cc1ccc(C(=O)Nc2ccccc2C(=O)Nc2cccc(C(F)(F)F)c2)cc1
55 | 64% | 1.32 |  | O=C(Nc1ccccc1C(=O)Nc1cccc(C(F)(F)F)c1)c1ccccc1

Row | %max [1] | AC50 ([2]; read-out: AC50) [µM] | AC50 ([2]; hek293) | Structure (SMILES)
56 | 57% | 94 |  | O=C(Nc1ccccc1)c1ccccc1NC(=O)C1CCCCC1
57 | 92% | 3.74 |  | Cc1cccc(C(=O)Nc2ccccc2C(=O)Nc2cccc(C(F)(F)F)c2)c1
58 | 93% | 5.93 |  | O=C(Nc1cccc([N+](=O)[O-])c1)c1ccccc1NC(=O)C1CCCCC1
59 | 88% | 2.36 |  | O=C(Nc1cccc(C(F)(F)F)c1)c1ccccc1NC(=O)C1CCCC1
60 | inactive |  | Not Active | O=C(Nc1cc(C(F)(F)F)ccc1F)c1ccccc1NC(=O)C1CCCCC1
61 | 84% | 1.06 |  | O=C(Nc1ccccc1C(=O)Nc1cccc(C(F)(F)F)c1)c1cccc([N+](=O)[O-])c1
62 | inactive |  |  | Cc1ccccc1NC(=O)c1ccccc1NC(=O)C1CCCCC1
63 | 96% | 0.666 |  | CCOc1ccccc1C(=O)Nc1ccccc1C(=O)Nc1cccc(C#N)c1
64 | 84% | 5.29 |  | CSc1cccc(NC(=O)c2ccccc2NC(=O)C2CCCCC2)c1
65 | inactive |  | Not Active | CC(C)(C)c1ccc(NC(=O)c2ccccc2NC(=O)C2CCCCC2)cc1
66 | 74% | 37.4 |  | COc1cccc(NC(=O)c2ccccc2NC(=O)C2CCCCC2)c1
67 | 74% | 37.4 |  | O=C(Nc1ccc(F)cc1)c1ccccc1NC(=O)C1CCCCC1
68 | 81% | 2.36 |  | O=C(Nc1ccccc1C(=O)Nc1cccc(C(F)(F)F)c1)c1ccco1
69 | inactive |  | Not Active | O=C(Nc1cccc(-c2ccc(C(F)(F)F)cc2)c1)c1ccccc1NC(=O)C1CCCCC1
70 | 46% | 94 |  | O=C(Nc1ccc(C(F)(F)F)cc1)c1ccccc1NC(=O)C1CCCCC1
71 | inactive |  |  | O=C(NCc1cccc(C(F)(F)F)c1)c1ccccc1NC(=O)C1CCCCC1
72 | inactive |  |  | O=C(Nc1cccc(-c2ccccc2)c1)c1ccccc1NC(=O)C1CCCCC1
73 | inactive |  |  | CCOc1ccccc1S(=O)(=O)Nc1ccccc1C(=O)Nc1cccc(S(=O)(=O)C(F)(F)F)c1

— ChEMBL document CHEMBL3714716, “Modulators of the relaxin receptor 1” (2015)
